What all share (format): cell-based
The subject of experiment [1] is human breast cancer cell line MCF-7. As to the kind of experiment: In vitro tumor cell proliferation inhibition assay (SRB method), MCF-7. The note with it: for IC50: MCF7, 72 hours, SRB, mean of triplicate experiments, read-out: IC50 against MCF-7. On the procedure: (§1) Sulforhodamine B Colorimetric Method (SRB Method) and MTT Colorimetric Method (MTT Method)
(§2) Human lung cancer cell line A549, human liver cancer cell line HepG2, human colon cancer cell line HCT116, human colon cancer cell line HT-29, human leukemia cell line K562, human cervical cancer cell line hela, and human breast cancer cell line MCF-7, all provided by the Shanghai Cell Bank, Chinese Academy of Sciences.
(§3) A549, HepG2, HCT116, HT-29, K562, hela, and MCF-7 cells were cultured respectively in 1640, DMEM, 5A, 5A, 1640, DMEM, and 1640 culture media containing 10 wt % heat-inactivated FBS (fetal bovine serum), 2 mM L-glutamine, 100 U/mL penicillin and […] streptomycin, in a cell incubator at 37° C. and 5 vol % CO2. The medium was replaced every two days. After the A549, HepG2, HCT116, HT-29, hela, and MCF-7 cells were confluent, they were digested with 0.05% (w/v) trypsin-EDTA at 37° C., passaged, and maintained in the logarithmic growth phase suitable for testing. The K562 suspension cells were passaged without digestion, and maintained in the logarithmic growth phase suitable for testing. The A549, HepG2, HCT116, HT-29, K562, hela, and MCF-7 cells in the logarithmic growth phase were inoculated to 96-well plates at 5000, 5000, 5000, 5000, 6000, 5000, 5000 per well, respectively, and cultured at 37° C. for 24 h.
(§4) Then various concentrations of test samples were added. The positive control group was doxorubicin hydrochloride (final concentration was 1 μM), the solvent control group was an equal volume of DMSO, and the blank control group was an equal volume of a culture medium, with 4 replicate wells for each concentration. After the A549, HepG2, HCT116, HT-29, hela, and MCF-7 cells were treated with the test drugs for 72 hours, the cells in each well were fixed with 50% (m/v) cold trichloroacetic acid (TCA) and stained with SRB. Then […] of Tris solution was added, and the OD value at the wavelength of 540 nm was measured using a microplate reader. For K562 cells, after 72 hours of treatment with the test drugs, […] of 5 mg/mL MTT was added, and the cells were incubated at 37° C. for 4 hours. Next, […] of a triplet solution (10% SDS, 5% isobutanol, 12 mM HCl) was added, followed by further incubation for 12 to 20 hours. The OD value at the wavelength of 570 nm was measured using a microplate reader.
(§5) The tumor cell growth inhibition rate was calculated according to the following equation: […]
(§6) in the equation, • OD540 control well is the absorbance of the control group; • OD540 dosing well is the absorbance of the test group.
(§7) IC50 values of the test drugs (calculated by GraphPad Prism 5 software) were the means of the results of triplicate experiments.
Background: The SRB assay estimates cell density from bound dye.

In experiment [2] the test system is human lung cancer cell line A549. As to the kind of experiment: In vitro tumor cell proliferation inhibition assay (SRB method), A549. The note with it: 72 hours; for IC50 / inhibition at 10 µM: SRB; for IC50: mean of triplicate experiments, read-out: IC50 against A549; for inhibition at 10 µM: test compounds 10 μM. On the procedure: as §1, §2, §3, §4, §5, §6, §7

In experiment [3] the test system is human colon cancer cell line HT-29. As to the kind of experiment: In vitro tumor cell proliferation inhibition assay (SRB method), HT-29. The note with it: 72 hours; for IC50: SRB, mean of triplicate experiments, read-out: IC50 against HT-29. On the procedure:
as §1, §2, §3, §4, §5, §6, §7

Experiment [4] has as its system human liver cancer cell line HepG2. As to the kind of experiment: In vitro tumor cell proliferation inhibition assay (SRB method), HepG2. The note with it: 72 hours; for IC50 / inhibition at 10 µM: SRB; for IC50: mean of triplicate experiments, read-out: IC50 against HepG2; for inhibition at 10 µM: test compounds 10 μM. On the procedure: as §1, §2, §3, §4, §5, §6, §7

The subject of experiment [5] is human cervical cancer cell line hela. The experiment in a line: In vitro tumor cell proliferation inhibition assay (SRB method), hela. The following applies: 72 hours; for IC50: SRB, mean of triplicate experiments, read-out: IC50 against hela. On the procedure:
as §1, §2, §3, §4, §5, §6, §7

Experiment [6] concerns human leukemia cell line K562. The experiment in a line: In vitro tumor cell proliferation inhibition assay (MTT method), K562. The note with it: 72 hours; for IC50: mean of triplicate experiments, read-out: IC50 against K562. On the procedure:
as §1, §2, §3, §4, §5, §6, §7
In general terms: Tetrazolium dyes change colour on reduction, which living cells bring about.

In experiment [7] the test system is human colon cancer cell line HCT116. As to the kind of experiment: In vitro tumor cell proliferation inhibition assay (SRB method), HCT116. The following applies: for IC50: HCT-116, 72 hours, mean of triplicate experiments, read-out: IC50 against HCT116; for IC50 / inhibition at 10 µM: SRB; for inhibition at 10 µM: HCT-116, test compounds 10 μM. On the procedure:
as §1, §2, §3, §4, §5, §6, §7

The test system of experiment [8] is A549, HepG2, HCT116, HT-29, K562, hela, and MCF-7 cell lines. The experiment in a line: In vitro tumor cell proliferation inhibition assay, summary over all 7 types of cells. The note with it: Homo sapiens. On the procedure:
as §1, §2, §3, §4, §5, §6, §7

Where [9] appears, read: read-out: Inhibition rate on A549.
The mark [10] stands for this setting: read-out: Inhibition rate on HepG2.
The mark [11] stands for this setting: 72 hours, read-out: Inhibition rate on HCT116.
Where [12] appears, read: upper bound over A549, HepG2, HCT116, HT-29, K562, hela, MCF-7.

Usually IC50 stands for the midpoint of a concentration-inhibition curve. What is called inhibition is the drop in the measured response relative to a control, in per cent. In the case of `CC(=O)NCc1c(O)c(O)c(O)c(CNC(C)=O)c1C(=O)O` [Compound I-2, N-(2,3,4-trihydroxy-5-acetamidomethyl-6-carboxybenzyl) acetamide], the IC50 is over 50 µM in experiment [1]; 4.84 µM in experiment [2]; over 50 µM in experiment [3]; over 50 µM in experiment [4]; over 50 µM in experiment [5]; over 50 µM in experiment [6]. In addition, the IC50 in experiment [7] was over 50 µM. The results for the inhibition at 10 µM in experiment [2] (setting [9]), in experiment [4] (setting [10]) and in experiment [7] (setting [11]) were 69.9%, 18.4% and 82%, respectively.
For the molecule `Cc1c(O)c(CNC(=O)CCl)cc(CNC(=O)CCl)c1O` [Compound I-3, N-(2,4-dihydroxy-3-methyl-5-chloroacetamidomethylbenzyl) chloroacetamide], the IC50 was under 35.5 µM in experiment [8] (setting [12]); 9.73 µM in experiment [1]; 7.4 µM in experiment [2]; 10.7 µM in experiment [3]; 6.04 µM in experiment [4]; 9.3 µM in experiment [5]. For the same molecule, the IC50 in experiment [6] came to 14.5 µM; in experiment [7], 5.12 µM. In addition, the inhibition at 10 µM in experiment [2] (setting [9]) is 95.9%; in experiment [4] (setting [10]), 92.3%; in experiment [7] (setting [11]), 76.5%.
On to `Cc1c(C)c(CNC(=O)CCl)c(C)c(CNC(=O)CCl)c1O` [Compound I-5, N-(2,3,6-trimethyl-4-hydroxy-5-chloroacetamidomethylbenzyl) chloroacetamide], for which the IC50 in experiment [8] (setting [12]) is under 35.5 µM; in experiment [8] (upper bound over all 7 types of cells, compound I-5), under 9.4 µM; in experiment [1] it was 3.74 µM; in experiment [2], 6.32 µM; in experiment [3], 9.39 µM; in experiment [4] it was 4.06 µM. Moreover, the 50% inhibitory concentration (IC50) in experiment [5] was determined as 5.64 µM; in experiment [6], 6.93 µM; in experiment [7] it was 5.32 µM. Moreover, the inhibition at 10 µM amounted to 89.5% in experiment [2] (setting [9]), 95.3% in experiment [4] (setting [10]) and 97.3% in experiment [7] (setting [11]).
`C=CC(=O)NCc1c(C(=O)OC)cc(O)c(O)c1O` [Compound I-8, N-(2,3,4-trihydroxy-6-carbomethoxy-benzyl) acrylamide]: the figures for the inhibition at 10 µM in experiment [2] (setting [9]), in experiment [4] (setting [10]) and in experiment [7] (setting [11]) were 28.5%, 54.8% and 30.4%, respectively.
For `C=CC(=O)NCc1c(C(=O)OCCC)cc(O)c(O)c1O` [Compound I-9, N-(2,3,4-trihydroxy-6-propoxycarbonyl-benzyl) acrylamide], the inhibition at 10 µM in experiment [2] (setting [9]) was found to be 27.5%; in experiment [4] (setting [10]) it was 51.1%; in experiment [7] (setting [11]), 29.1%.
As to `COC(=O)c1cc(O)c(O)c(O)c1CNC(C)=O` [Compound I-10, N-(2,3,4-trihydroxy-6-carbomethoxy-benzyl) acetamide], the inhibition at 10 µM was found to be 38.2% in experiment [2] (setting [9]), 55.8% in experiment [4] (setting [10]) and 34.8% in experiment [7] (setting [11]).
For `CCCOC(=O)c1cc(O)c(O)c(O)c1CNC(C)=O` [Compound I-11, N-(2,3,4-trihydroxy-6-propoxycarbonyl-benzyl) acetamide], in that order: 32.5%, 55.5% and 38.2%.
On to `COC(=O)c1cc(O)c(O)c(O)c1CNC(=O)CCl` [Compound I-12, N-(2,3,4-trihydroxy-6-carbomethoxy-benzyl) chloroacetamide], for which the inhibition at 10 µM was determined as 40.9% in experiment [2] (setting [9]), 55.9% in experiment [4] (setting [10]) and 47.6% in experiment [7] (setting [11]).
`CCCOC(=O)c1cc(O)c(O)c(O)c1CNC(=O)CCl` [Compound I-13, N-(2,3,4-trihydroxy-6-propoxycarbonyl-benzyl) chloroacetamide]: the inhibition at 10 µM in experiment [2] (setting [9]) stood at 29.6%; in experiment [4] (setting [10]) it was 55%; in experiment [7] (setting [11]) it was 37.8%.
For `COC(=O)c1cc(O)c(O)c(O)c1CNC(=O)c1ccccc1` [Compound I-14, N-(2,3,4-trihydroxy-6-carbomethoxy-benzyl) benzamide], in that order: 37.7%, 1.56% and 34.1%.
For `C=CC(=O)NCc1cc(CNC(=O)C=C)c(O)c(C(C)=O)c1O` [Compound I-15], the inhibition at 10 µM came out at 7.05% in experiment [2] (setting [9]), 33.5% in experiment [4] (setting [10]) and 27.7% in experiment [7] (setting [11]).
For the molecule `C=CC(=O)NCc1cc(C(C)=O)c(O)c(CNC(=O)C=C)c1O` [Compound I-16], the inhibition at 10 µM in experiment [2] (setting [9]) amounted to 4.84%; in experiment [4] (setting [10]), 13%; in experiment [7] (setting [11]), 33.9%.
In the case of `C=CC(=O)NCc1c(O)c(Br)c(O)c(CNC(=O)C=C)c1C(=O)O` [Compound I-17], the IC50 was under 35.5 µM in experiment [8] (setting [12]); 2.93 µM in experiment [1]; 7.77 µM in experiment [2]; 8.6 µM in experiment [3]; 3.05 µM in experiment [4]; 3.01 µM in experiment [5]. Besides, the IC50 in experiment [6] came out at 18 µM; in experiment [7], 2.74 µM. In addition, the inhibition at 10 µM in experiment [2] (setting [9]) was determined as 95.8%; in experiment [4] (setting [10]) it was 90.3%; in experiment [7] (setting [11]), 91.5%.
On to `C=CC(=O)NCc1cc(C(=O)OC)cc(O)c1O` [Compound I-18], for which the inhibition at 10 µM came out at 10.5% in experiment [2] (setting [9]), 73% in experiment [4] (setting [10]) and 22.5% in experiment [7] (setting [11]).
With `COc1cccc2c1C(=O)c1c(O)c3c(c(O)c1C2=O)C[C@@](O)(C(=O)CO)C[C@@H]3O[C@H]1C[C@H](N)[C@H](O)[C@H](C)O1` [doxorubicin, reference compound], the inhibition at 1 µM in experiment [1] (MCF7, doxorubicin 1 μM, 72 hours, read-out: Inhibition rate on MCF-7) was determined as 69.1%; in experiment [2] (doxorubicin 1 μM, read-out: Inhibition rate on A549) it was 88.8%; in experiment [3] (doxorubicin 1 μM, read-out: Inhibition rate on HT-29), 95.3%; in experiment [4] (doxorubicin 1 μM, read-out: Inhibition rate on HepG2) it was 78.1%; in experiment [5] (doxorubicin 1 μM, read-out: Inhibition rate on hela), 44.3%; in experiment [6] (doxorubicin 1 μM, read-out: Inhibition rate on K562) it was 40.8%. The inhibition at 1 µM in experiment [7] (HCT-116, doxorubicin 1 μM, 72 hours, read-out: Inhibition rate on HCT116) is 60.9%.

For the origin of these results see patent US20260055051A1, “Compound with anti-tumor activity, preparation method therefor, and use thereof” (Ocean University of China, priority 2022, published 2026).
